What all share (type): physicochemical
The nature of series [1]: Slurry examples: forms suspended in water at 30° C., stirred, XRD analysis. Particulars: magnetic stirrer. On the procedure: Slurry Examples Proving the Stability of Form B:
The form in question or mixtures of different forms of 3-(difluoromethyl)-1-methyl-N-(3′,4′,5′-trifluoro[1,1′-biphenyl]-2-yl)-1H-pyrazole-4-carboxamide were suspended in water at 30° C.

Series [2] in a line: Phase conversion of the amorphous form at room temperature. The source says:
The phase transformation can be seen for example in a DSC measurement or under a hot stage microscope.

A short description of series [3]: Formulation stability upon storage at 40° C. for one week (sedimentation, particle size, crystalline modification by DSC and PXRD). The conditions noted are these: SC formulation. On the procedure:
The stability of the crystalline forms was tested by formulating form A or form B according to examples 1 and 2 and analyzing the formulation stability in the form of sedimentation, particle size growth and change in crystalline modification.
The obtained formulations were assessed for their stability upon storage at 40° C. for one week. Microscopic pictures of the formulation were taken before and after storage at 40° C. to examplify the change in particle size. Dispersion stability was assessed using a 2% dilution of the formulation in water in a conical cylinder. The sedimentation volume is recorded after 2 hours of standing. The sediment was collected and analysed using DSC and powder diffraction diffractometry to characterized the solid sediment (giving thus evidence of the sediment amount and crystalline modification present in the sedimentation).
This would in practice be very unfavourable and cause blocking of nozzle during the application and inhomogeneous distribution of the active ingredient into the formulation.

Take `Cn1cc(C(=O)Nc2ccccc2-c2cc(F)c(F)c(F)c2)c(C(F)F)n1` [amorphous form, 3-(Difluormethyl)-1-methyl-N-(3′,4′,5′-trifluor[1,1′-biphenyl]-2-yl)-1H-pyrazol-4-carboxamide]: the “Conversion of solid form in water suspension (XRD analysis)” value in series [1] (after 1 day) is listed as “converted (based on XRD analysis) into form B”. Besides, in series [2], the “Conversion of solid form on standing” value is “converts at room temperature slowly to crystalline form A or typically to mixtures of form A and form B”.

`Cn1cc(C(=O)Nc2ccccc2-c2cc(F)c(F)c(F)c2)c(C(F)F)n1` [form A, 3-(Difluormethyl)-1-methyl-N-(3′,4′,5′-trifluor[1,1′-biphenyl]-2-yl)-1H-pyrazol-4-carboxamide]: the “Phase transformation of the formulated active ingredient (DSC and PXRD)” value in series [3] is “converted fully into needle like crystals of form B”. Moreover, the “Conversion of solid form in water suspension (XRD analysis)” value in series [1] (after 2 days) is “converted (based on XRD analysis) into form B”.

The values are drawn from US8101780B2, “Crystalline form of 3-(difluormethyl)-1-methyl-N-(3′,4′,5′-trifluor[1,1′-biphenyl]-2-yl)-1H-pyrazol-4-carboxamide” (BASF SE, priority 2007, dated 2012).
